Measured values from patent publication US11351173B2, “Substituted pyrrolo[1,2-a]pyrimidines and their use in the treatment of medical disorders” (Bial—R&D Investments, S.A., priority 2014, dated 2022).
Converted amounts (≈) assume the structure as drawn.

What was measured:
[1] = Compound solubility in water; settings: water; for solubility: Compound Solubility in Water
[2] = target: T1, glucocerebrosidase (Gcase) (Homo sapiens, UniProt P04062); assay: Glucocerebrosidase (Gcase) activation assay, 4-methylumbelliferyl-beta-D-glucopyranoside substrate, fluorescence readout; format: biochemical; settings: for activation at 0.1 µM / Percent Gcase Activation, 0.1 μM Test Compound: test compound at 0.1 μM; for activation at 0.1 µM: read-out: Percent Gcase Activation, 0.1 μM Test Compound; for activation at 1 µM / Percent Gcase Activation, 1 μM Test Compound: test compound at 1.0 μM; for activation at 1 µM: read-out: Percent Gcase Activation, 1 μM Test Compound
T1 construct: micellar solution containing 10 nM GCase and 100 nM saposin C
T1 sequence (P04062 40-536): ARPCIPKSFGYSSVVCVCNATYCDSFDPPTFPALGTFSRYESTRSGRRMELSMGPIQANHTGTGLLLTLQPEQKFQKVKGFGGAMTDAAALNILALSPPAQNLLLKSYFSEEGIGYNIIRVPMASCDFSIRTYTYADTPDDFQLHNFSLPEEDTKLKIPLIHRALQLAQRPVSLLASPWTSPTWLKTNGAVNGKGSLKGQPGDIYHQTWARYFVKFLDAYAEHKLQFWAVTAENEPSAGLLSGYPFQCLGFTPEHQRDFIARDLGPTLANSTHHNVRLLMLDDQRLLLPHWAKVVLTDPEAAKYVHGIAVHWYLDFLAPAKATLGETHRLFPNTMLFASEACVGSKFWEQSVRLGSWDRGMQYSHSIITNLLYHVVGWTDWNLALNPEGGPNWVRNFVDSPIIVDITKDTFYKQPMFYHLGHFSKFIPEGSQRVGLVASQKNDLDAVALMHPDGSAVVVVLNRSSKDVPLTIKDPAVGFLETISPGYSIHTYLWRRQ
Outline: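 Readout is endpoint fluorescence (ex 365, em 440 nm) after glycine pH 12.5 stop of a 15-min room-temperature reaction. Enzyme mix: GCase 10 nM plus saposin C 100 nM in 0.37 mol % PS/0.32 mM triton micelles, pH 4.7, compound pre-incubated 30 min; substrate solution 2 mM before 1:1 mixing. Tested at 1.0/0.1 μM, then 3-fold, 8-point series up to 5 μM.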

| Compound | solubility ([1]; in water) | activation at 0.1 µM [2] | activation at 1 µM [2] | solubility [1] | Compound Solubility in Water [1] | Percent Gcase Activation, 0.1 μM Test Compound [2] | Percent Gcase Activation, 1 μM Test Compound [2] |
| --- | --- | --- | --- | --- | --- | --- | --- |
| Cc1cc(C)n2ccc(C(=O)NC3CCCc4ccc(C#N)cc43)c2n1 (centres unmarked) [III-209] | 2.3 µg/mL (≈ 6.68 µM) | 10 to 20% | > 60% | – | – | – | – |
| Cc1cc(C(F)F)nc2c(C(=O)Nc3ccc(-c4cocn4)cc3)ccn12 [III-30] | – | > 20% | 30 to 60% | 0.06 µg/mL (≈ 0.163 µM) | – | – | – |
| Cc1cc(O)n2ccc(C(=O)NC3CCCc4ccccc43)c2n1 (centres unmarked) [III-56] | – | < 10% | < 30% | 3.7 µg/mL (≈ 11.5 µM) | – | – | – |
| Cc1cc(C)n2ccc(C(=O)NC34CCC(CC3)c3ccccc34)c2n1 [III-126] | – | > 20% | > 60% | 0.3 µg/mL (≈ 0.868 µM) | – | – | – |
| Cc1cc(C)n2ccc(C(=O)NC3CCCc4cccnc43)c2n1 (centres unmarked) [III-193] | – | < 10% | < 30% | 27.2 µg/mL (≈ 84.9 µM) | – | – | – |
| CCO[C@H]1CC[C@H](NC(=O)c2ccn3c(C)cc(C)nc23)CC1 [III-99] | – | < 10% | < 30% | 30.5 µg/mL (≈ 96.7 µM) | – | – | – |
| C#CCCCO[C@H]1CC[C@H](NC(=O)c2ccn3c(C)cc(C)nc23)CC1 [III-194] | – | 10 to 20% | > 60% | 4.5 µg/mL (≈ 12.7 µM) | – | – | – |
| Cc1cc(C)n2ccc(C(=O)NC3CCC4(CCCCO4)CC3)c2n1 (centres unmarked) [III-112] | – | < 10% | – | 30.4 µg/mL (≈ 89 µM) | – | – | – |
| CCCO[C@H]1CC[C@H](NC(=O)c2ccn3c(C)cc(C)nc23)CC1 [III-290] | 17.3 µg/mL (≈ 52.5 µM) | < 10% | > 60% | – | – | – | – |
| [2H]c1c(C([2H])([2H])[2H])nc2c(C(=O)NC3(C)CCOc4ccccc43)cc([2H])n2c1C([2H])([2H])[2H] (centres unmarked) [III-159] | – | > 20% | > 60% | 4.9 µg/mL (≈ 14.3 µM) | – | – | – |
| CO[C@H]1CC[C@@H](C(C)(C)NC(=O)c2ccn3c(C)cc(Cl)nc23)CC1 [III-76] | – | > 20% | > 60% | 0.04 µg/mL (≈ 0.11 µM) | – | – | – |
| Cc1cc(C(F)(F)F)n2ccc(C(=O)Nc3ccc(-c4cocn4)cc3)c2n1 [III-254] | 0.6 µg/mL (≈ 1.55 µM) | < 10% | < 30% | – | – | – | – |
| COCc1cc(C2CC2)nc2c(C(=O)NC3(C)CCOc4cc(F)c(F)cc43)ccn12 (centres unmarked) [III-266] | 0.9 µg/mL (≈ 2.11 µM) | 10 to 20% | > 60% | – | – | – | – |
| Cc1cc(C)n2ccc(C(=O)NC3CCCC34CCCCO4)c2n1 (centres unmarked) [III-139] | – | – | – | – | 1.4 µg/mL | * (less than 10% Gcase activation) | +++ (Gcase activation greater than 60%) |
| Cc1cc(C)n2ccc(C(=O)NC3CCC(C(=O)N(C)C4CC4)CC3)c2n1 (centres unmarked) [III-135] | – | – | – | – | 41.1 µg/mL | * (less than 10% Gcase activation) | + (less than 30% Gcase activation) |
| Cc1cc(C)n2ccc(C(=O)NCC3CCC4(CCCCO4)CC3)c2n1 (centres unmarked) [III-123] | – | < 10% | > 60% | 19.4 µg/mL (≈ 54.6 µM) | – | – | – |
| COc1cc(C)n2ccc(C(=O)Nc3ccc(-c4cocn4)cc3)c2n1 [III-52] | – | 10 to 20% | 30 to 60% | 0.1 µg/mL (≈ 0.287 µM) | – | – | – |
| Cc1cc(C)n2ccc(C(=O)Nc3ccc4c(c3)C(Oc3cc(C)on3)CC4)c2n1 (centres unmarked) [III-96] | – | > 20% | > 60% | 0.08 µg/mL (≈ 0.199 µM) | – | – | – |
| [2H]C1(NC(=O)c2ccn3c(COC)cc(C(C)C)nc23)CCOc2cc(F)c(F)cc21 (centres unmarked) [III-59] | – | 10 to 20% | > 60% | 0.07 µg/mL (≈ 0.168 µM) | – | – | – |
| CCCc1cc(COC)n2ccc(C(=O)NC3(C)CCOc4cc(F)c(F)cc43)c2n1 (centres unmarked) [III-267] | 0.4 µg/mL (≈ 0.931 µM) | < 10% | > 60% | – | – | – | – |

| Compound | solubility ([1]; in water) | activation at 0.1 µM [2] | activation at 1 µM [2] | solubility [1] | Compound Solubility in Water [1] | Percent Gcase Activation, 0.1 μM Test Compound [2] | Percent Gcase Activation, 1 μM Test Compound [2] |
| --- | --- | --- | --- | --- | --- | --- | --- |
| Cc1cc(C)n2ccc(C(=O)Nc3ccc(-c4ncco4)cc3)c2n1 [III-7] | – | > 20% | > 60% | 0.06 µg/mL (≈ 0.181 µM) | – | – | – |
| CCCCCO[C@@H]1CC[C@H](NC(=O)c2ccn3c(C)cc(C)nc23)C1 [III-145] | – | 10 to 20% | > 60% | – | 2.3 µg/mL | – | – |
| CCCCO[C@H]1CC[C@H](NC(=O)c2ccn3c(COC)cc(C4CC4)nc23)CC1 [III-268] | 2.1 µg/mL (≈ 5.26 µM) | > 20% | > 60% | – | – | – | – |
| COCC#Cc1ccc(NC(=O)c2ccn3c(C)cc(C)nc23)cn1 [III-18] | – | < 10% | 30 to 60% | 0.7 µg/mL (≈ 2.09 µM) | – | – | – |
| [2H]C1(NC(=O)c2ccn3c(C)ccnc23)CCCc2ccccc21 (centres unmarked) [III-263] | 7.1 µg/mL (≈ 23.2 µM) | > 20% | > 60% | – | – | – | – |
| Cc1cc(C)n2ccc(C(=O)NC3Cc4ccc(-c5cscn5)cc4C3)c2n1 (centres unmarked) [III-192] | – | > 20% | > 60% | 0.01 µg/mL (≈ 0.0257 µM) | – | – | – |
| COCc1cc(C2CC2)n2ccc(C(=O)NC3(C)CCOc4cc(F)c(F)cc43)c2n1 (centres unmarked) [III-270] | 3 µg/mL (≈ 7.02 µM) | < 10% | 30 to 60% | – | – | – | – |
| CCCCCOC1CCC(NC(=O)c2ccn3c(C)cc(C)nc23)C1 (centres unmarked) [III-176] | – | 10 to 20% | > 60% | – | 4.6 µg/mL | – | – |
| Cc1cc(C)n2ccc(C(=O)Nc3ccc4c(c3)OCO4)c2n1 [III-16] | – | > 20% | > 60% | 0.2 µg/mL (≈ 0.647 µM) | – | – | – |
| Cc1cc(C)n2ccc(C(=O)Nc3ccc(C4=NCCO4)cc3Cl)c2n1 [III-219] | 0.9 µg/mL (≈ 2.44 µM) | > 20% | > 60% | – | – | – | – |
| Cc1cc(C(F)F)nc2c(C(=O)NC3CCCc4ccccc43)ccn12 (centres unmarked) [III-29] | – | > 20% | > 60% | 0.9 µg/mL (≈ 2.53 µM) | – | – | – |
| Cc1cc(C(F)(F)F)nc2c(C(=O)NC3CCCc4ccccc43)ccn12 (centres unmarked) [III-251] | 0.2 µg/mL (≈ 0.536 µM) | > 20% | > 60% | – | – | – | – |
| Cc1cc(C)n2ccc(C(=O)NC3CCc4nc(C)oc4C3)c2n1 (centres unmarked) [III-284] | 21.1 µg/mL (≈ 65 µM) | < 10% | < 30% | – | – | – | – |
| Cc1cc(C2CC2)n2ccc(C(=O)N[C@H]3CC[C@H](OCCCCC(F)(F)F)CC3)c2n1 [III-47] | – | < 10% | > 60% | 0.3 µg/mL (≈ 0.686 µM) | – | – | – |
| Cc1cc(C)n2ccc(C(=O)NC3CCC(c4cccs4)CC3)c2n1 (centres unmarked) [III-188] | – | – | – | – | 1.0 µg/mL | *** (greater than 20% Gcase activation) | +++ (Gcase activation greater than 60%) |
| Cc1cc(C)n2ccc(C(=O)N[C@H]3CC[C@@H](Oc4cccs4)CC3)c2n1 [III-189] | – | > 20% | > 60% | 1 µg/mL (≈ 2.71 µM) | – | – | – |
| Cc1cc(C)n2ccc(C(=O)NC3CCN(CC(F)(F)F)C3)c2n1 (centres unmarked) [III-235] | 25.1 µg/mL (≈ 73.7 µM) | < 10% | < 30% | – | – | – | – |
| CCCCO[C@H]1CC[C@H](NC(=O)c2ccn3c(COC)cc(C)nc23)CC1 [III-33] | – | 10 to 20% | > 60% | 21 µg/mL (≈ 56.2 µM) | – | – | – |
| CCCCO[C@H]1CC[C@H](NC(=O)c2ccn3c(C(C)C)cc(COC)nc23)CC1 [III-37] | – | 10 to 20% | > 60% | 18 µg/mL (≈ 44.8 µM) | – | – | – |
| Cc1cc(C)n2ccc(C(=O)NC3CCN(c4ccsc4)CC3)c2n1 [III-115] | – | < 10% | 30 to 60% | 1.9 µg/mL (≈ 5.36 µM) | – | – | – |
